In patent US8530489B2 (Vertex Pharmaceuticals Incorporated, priority 2006, dated 2013) one finds Ki data, which are given here for 29 molecules.

Some results are limits rather than exact numbers.

Chain of PLK1 (P53350 whole entry): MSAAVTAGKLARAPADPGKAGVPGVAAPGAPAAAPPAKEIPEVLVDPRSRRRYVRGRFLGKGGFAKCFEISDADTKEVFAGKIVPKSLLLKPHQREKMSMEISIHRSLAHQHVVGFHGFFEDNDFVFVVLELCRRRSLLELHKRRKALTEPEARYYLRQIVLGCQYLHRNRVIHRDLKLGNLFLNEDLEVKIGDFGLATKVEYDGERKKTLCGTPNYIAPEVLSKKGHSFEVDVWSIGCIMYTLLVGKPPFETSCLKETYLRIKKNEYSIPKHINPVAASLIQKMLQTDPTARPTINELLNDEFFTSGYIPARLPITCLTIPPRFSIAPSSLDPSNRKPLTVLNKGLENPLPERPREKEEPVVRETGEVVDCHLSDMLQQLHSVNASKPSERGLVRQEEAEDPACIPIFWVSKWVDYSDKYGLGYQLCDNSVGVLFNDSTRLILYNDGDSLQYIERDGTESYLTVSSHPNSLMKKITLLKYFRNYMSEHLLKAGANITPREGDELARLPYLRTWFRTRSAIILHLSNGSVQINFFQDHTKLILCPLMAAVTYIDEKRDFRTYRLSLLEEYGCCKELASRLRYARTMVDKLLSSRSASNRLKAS

The assay addresses PLK1 (Homo sapiens, UniProt P53350). The experiment in a line: PLK1 Inhibition Assay I (radioactive-phosphate incorporation). The assay is classed as biochemical. As to conditions: Ki(app); PLK1 Inhibition Assay I or II (table does not say which). The procedure, abridged:
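Ki(app) values came from non-linear regression of initial rates after background subtraction, with phosphopeptide measured by phosphocellulose filter binding and scintillation counting. PLK1 at 2 nM was preincubated with compound (typically from 10 μM, 2-fold dilutions) for 10 min, then run 240 min at 25° C with 350 μM [γ-33P]ATP and 450 μM peptide substrate in HEPES pH 7.5 buffer.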
On to `CC(Nc1ncc(C#N)c(-c2c[nH]c3ncc(C(F)(F)F)cc23)n1)c1ccc(O)c(Cl)c1` (centres unmarked) [Compound I-122, 2-(1-(3-chloro-4-hydroxyphenyl)ethylamino)-4-(5-(trifluoromethyl)-1H-pyrrolo[2,3-b]pyridin-3-yl)pyrimidine-5-carbonitrile], for which the Ki was under 3 nM. Take `N#Cc1cnc(NCc2ccc(F)cc2)nc1-c1c[nH]c2ncc(C(F)(F)F)cc12` [Compound I-22, 2-(4-fluorobenzylamino)-4-(5-(trifluoromethyl)-1H-pyrrolo[2,3-b]pyridin-3-yl)pyrimidine-5-carbonitrile]: the Ki was over 40 nM. The value for `CNc1ccc(C(C)Nc2ncc(C#N)c(-c3c[nH]c4ncc(C(F)(F)F)cc34)n2)cn1` (centres unmarked) [Compound I-151, 2-(1-(6-(methylamino)pyridin-3-yl)ethylamino)-4-(5-(trifluoromethyl)-1H-pyrrolo[2,3-b]pyridin-3-yl)pyrimidine-5-carbonitrile] was under 3 nM; that for `N#Cc1cnc(N[C@H]2CCOC2)nc1-c1c[nH]c2ncc(C(F)(F)F)cc12` [Compound I-78, 2-((S)-tetrahydrofuran-3-ylamino)-4-(5-(trifluoromethyl)-1H-pyrrolo[2,3-b]pyridin-3-yl)pyrimidine-5-carbonitrile] was 3 to 40 nM. The value for `N#Cc1cnc(NC2CC2)nc1-c1c[nH]c2ncc(C(F)(F)F)cc12` [Compound I-76, 2-(cyclopropylamino)-4-(5-(trifluoromethyl)-1H-pyrrolo[2,3-b]pyridin-3-yl)pyrimidine-5-carbonitrile] was over 40 nM. The same measure for `COC(=O)Nc1ccc([C@@H](C)Nc2ncc(C#N)c(-c3c[nH]c4ncc(C(F)(F)F)cc34)n2)cc1` [Compound I-141, methyl 4-((1R)-1-(5-cyano-4-(5-(trifluoromethyl)-1H-pyrrolo[2,3-b]pyridin-3-yl)pyrimidin-2-ylamino)ethyl)phenylcarbamate]: under 3 nM.

Turning to `C[C@@H](Nc1ncc(C#N)c(-c2c[nH]c3ncc(C(F)(F)F)cc23)n1)C1CCN(C(=O)C(O)CN)CC1` (stereo partly drawn) [Compound I-260, 2-((1R)-1-(1-(3-amino-2-hydroxypropanoyl)piperidin-4-yl)ethylamino)-4-(5-(trifluoromethyl)-1H-pyrrolo[2,3-b]pyridin-3-yl)pyrimidine-5-carbonitrile], the Ki was under 3 nM.

Consider `C[C@@H](O)C(=O)N1CCC([C@@H](C)Nc2ncc(C#N)c(-c3c[nH]c4ncc(C(F)(F)F)cc34)n2)CC1` [Compound I-207, 2-((R)-1-(1-((R)-2-hydroxypropanoyl)piperidin-4-yl)ethylamino)-4-(5-(trifluoromethyl)-1H-pyrrolo[2,3-b]pyridin-3-yl)pyrimidine-5-carbonitrile], for which the Ki was under 3 nM.

With `C[C@@H](Nc1ncc(C#N)c(-c2c[nH]c3ncc(C(F)(F)F)cc23)n1)[C@H]1CC[C@@H](N2CCN(C)CC2)CC1` [Compound I-245, 2-((R)-1-((1s,4S)-4-(4-methylpiperazin-1-yl)cyclohexyl)ethylamino)-4-(5-(trifluoromethyl)-1H-pyrrolo[2,3-b]pyridin-3-yl)pyrimidine-5-carbonitrile], the Ki was over 40 nM. The same measure for `COc1ccc(CNc2ncc(C#N)c(-c3c[nH]c4ncc(C(F)(F)F)cc34)n2)cc1` [Compound I-12, 2-(4-methoxybenzylamino)-4-(5-(trifluoromethyl)-1H-pyrrolo[2,3-b]pyridin-3-yl)pyrimidine-5-carbonitrile]: over 40 nM; for `CCS(=O)(=O)Nc1ccc([C@@H](C)Nc2ncc(C#N)c(-c3c[nH]c4ncc(C(F)(F)F)cc34)n2)cc1` [Compound I-169, N-(4-((1R)-1-(5-cyano-4-(5-(trifluoromethyl)-1H-pyrrolo[2,3-b]pyridin-3-yl)pyrimidin-2-ylamino)ethyl)phenyl)ethanesulfonamide]: under 3 nM; for `CC(C)Oc1ccc(CNc2ncc(C#N)c(-c3c[nH]c4ncc(C(F)(F)F)cc34)n2)cc1` [Compound I-41, 2-(4-isopropoxybenzylamino)-4-(5-(trifluoromethyl)-1H-pyrrolo[2,3-b]pyridin-3-yl)pyrimidine-5-carbonitrile]: over 40 nM. With `N#Cc1cnc(NCc2ccc(O)cc2)nc1-c1c[nH]c2ncc(C(F)(F)F)cc12` [Compound I-90, 4-(5-(1,1-Trifluoromethyl)-1H-pyrrolo[2,3-b]pyridin-3-yl)-2-(4-hydroxybenzylamino)pyrimidine-5-carbonitrile], the Ki was in the range of 3 to 40 nM. The same measure for `N#Cc1cnc(NCc2ccc3c(c2)OCO3)nc1-c1c[nH]c2ncc(C(F)(F)F)cc12` [Compound I-56]: 3 to 40 nM; for `N#Cc1cnc(NCc2ccccc2Cl)nc1-c1c[nH]c2ncc(C(F)(F)F)cc12` [Compound I-17, 2-(2-chlorobenzylamino)-4-(5-(trifluoromethyl)-1H-pyrrolo[2,3-b]pyridin-3-yl)pyrimidine-5-carbonitrile]: over 40 nM. The same measure for `C[C@H](Nc1ncc(C#N)c(-c2c[nH]c3ncc(Cl)cc23)n1)C(=O)NCC(F)(F)F` [IA-6, (2S)-2-(4-(5-chloro-1H-pyrrolo{2,3-b]pyridin-3-yl)-5-cyanopyrimidin-2-ylamino)-N-(2,2,2-trifluoroethyl)propanamide]: over 40 nM. The same measure for `CC(=O)N[C@H]1CC[C@@H]([C@@H](C)Nc2ncc(C#N)c(-c3c[nH]c4ncc(C(F)(F)F)cc34)n2)CC1` [Compound I-209, N-((1S,4s)-4-((1R)-1-(5-cyano-4-(5-(trifluoromethyl)-1H-pyrrolo[2,3-b]pyridin-3-yl)pyrimidin-2-ylamino)ethyl)cyclohexyl)acetamide]: 3 to 40 nM.

As for `C[C@@H](Nc1ncc(C#N)c(-c2c[nH]c3ncc(C(F)(F)F)cc23)n1)C1CCN(CC(N)=O)CC1` [Compound I-218, 2-(4-((1R)-1-(5-cyano-4-(5-(trifluoromethyl)-1H-pyrrolo[2,3-b]pyridin-3-yl)pyrimidin-2-ylamino)ethyl)piperidin-1-yl)acetamide], the Ki was under 3 nM. The value for `C[C@@H](Nc1ncc(C#N)c(-c2c[nH]c3ncc(C(F)(F)F)cc23)n1)c1ccc(N(C)CCCN(C)C)nc1` [Compound I-283, 2-((R)-1-(6-((3-(dimethylamino)propyl)(methyl)amino)pyridin-3-yl)ethylamino)-4-(5-(trifluoromethyl)-1H-pyrrolo[2,3-b]pyridin-3-yl)pyrimidine-5-carbonitrile] was 3 to 40 nM; that for `N#Cc1cnc(NCc2ccc(-n3cccn3)cc2)nc1-c1c[nH]c2ncc(C(F)(F)F)cc12` [Compound I-92, 2-(4-(1H-pyrazol-1-yl)benzylamino)-4-(5-(trifluoromethyl)-1H-pyrrolo[2,3-b]pyridin-3-yl)pyrimidine-5-carbonitrile] was over 40 nM; that for `C[C@@H](Nc1ncc(C#N)c(-c2c[nH]c3ncc(C(F)(F)F)cc23)n1)C1CCN(C(=O)C2(O)CC2)CC1` [Compound I-220, 2-((R)-1-(1-(1-hydroxycyclopropanecarbonyl)piperidin-4-yl)ethylamino)-4-(5-(trifluoromethyl)-1H-pyrrolo[2,3-b]pyridin-3-yl)pyrimidine-5-carbonitrile] was under 3 nM. The same measure for `C[C@H](O)[C@@H](N)C(=O)N1CCC([C@@H](C)Nc2ncc(C#N)c(-c3c[nH]c4ncc(C(F)(F)F)cc34)n2)CC1` [Compound I-249, 2-((R)-1-(1-((2R,3S)-2-amino-3-hydroxybutanoyl)piperidin-4-yl)ethylamino)-4-(5-(trifluoromethyl)-1H-pyrrolo[2,3-b]pyridin-3-yl)pyrimidine-5-carbonitrile]: under 3 nM. The same measure for `COCCC(=O)N1CCC(C(C)Nc2ncc(C#N)c(-c3c[nH]c4ncc(C(F)(F)F)cc34)n2)CC1` (centres unmarked) [Compound I-184, 2-(1-(1-(3-methoxypropanoyl)piperidin-4-yl)ethylamino)-4-(5-(trifluoromethyl)-1H-pyrrolo[2,3-b]pyridin-3-yl)pyrimidine-5-carbonitrile]: under 3 nM; for `C[C@@H](Nc1ncc(C#N)c(-c2c[nH]c3ncc(C(F)(F)F)cc23)n1)c1ccc(S(=O)(=O)N(C)C)cc1` [Compound I-190, 4-((1R)-1-(5-cyano-4-(5-(trifluoromethyl)-1H-pyrrolo[2,3-b]pyridin-3-yl)pyrimidin-2-ylamino)ethyl)-N,N-dimethylbenzenesulfonamide]: under 3 nM. With `C[C@H](Nc1ncc(C#N)c(-c2c[nH]c3ncc(C(F)(F)F)cc23)n1)c1ccc(O[C@H]2CCN(C)C2)cc1` [Compound I-161, 2-((S)-1-(4-((S)-1-methylpyrrolidin-3-yloxy)phenyl)ethylamino)-4-(5-(trifluoromethyl)-1H-pyrrolo[2,3-b]pyridin-3-yl)pyrimidine-5-carbonitrile], the Ki is under 3 nM. The value for `N#Cc1cnc(NCc2ccc3c(c2)CCO3)nc1-c1c[nH]c2ncc(C(F)(F)F)cc12` [Compound I-62, 2-((2,3-dihydrobenzofuran-5-yl)methylamino)-4-(5-(trifluoromethyl)-1H-pyrrolo[2,3-b]pyridin-3-yl)pyrimidine-5-carbonitrile] was 3 to 40 nM. The value for `COc1ccc(CNc2ncc(C#N)c(-c3c[nH]c4ncc(C(F)(F)F)cc34)n2)cc1Cl` [Compound I-94, 2-(3-chloro-4-methoxybenzylamino)-4-(5-(trifluoromethyl)-1H-pyrrolo[2,3-b]pyridin-3-yl)pyrimidine-5-carbonitrile] was 3 to 40 nM; that for `C#CCNc1ncc(C#N)c(-c2c[nH]c3ncc(C(F)(F)F)cc23)n1` [Compound I-79, 2-(prop-2-ynylamino)-4-(5-(trifluoromethyl)-1H-pyrrolo[2,3-b]pyridin-3-yl)pyrimidine-5-carbonitrile] was over 40 nM; that for `N#Cc1cnc(NCCCn2ccnc2)nc1-c1c[nH]c2ncc(C(F)(F)F)cc12` [Compound I-80, 2-(3-(1H-imidazol-1-yl)propylamino)-4-(5-(trifluoromethyl)-1H-pyrrolo[2,3-b]pyridin-3-yl)pyrimidine-5-carbonitrile] was over 40 nM.
